# Test results reported in the supplement of paper PMC10307832.
# Legend:
# Test in all cases: relative viability (nuclei count vs DMSO), 5 days (fraction); higher = more cells survive
# IPA-3 + Pictilisib = compound: C1=CC=C2C(=C1)C=CC(=C2SSC3=C(C=CC4=CC=CC=C43)O)O [IPA-3] + CS(=O)(=O)N1CCN(Cc2cc3nc(-c4cccc5[nH]ncc45)nc(N4CCOCC4)c3s2)CC1 [Pictilisib] (partner 1 µM)
# How it was run: (§1)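 Relative viability was taken as the ratio of nuclei in treated wells to nuclei in vehicle wells. Lung cancer cell lines in 1536-well plates received compounds by pin tool one day after seeding, either one drug alone or a fixed anchor-drug dose plus five library-drug doses (not always all listed) in √10 steps. Nuclei were counted on 4× images after 5 days of treatment, and values are medians of duplicate plates.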
# Doramapimod + Phenformin = compound: Cc1ccc(-n2nc(C(C)(C)C)cc2NC(=O)Nc2ccc(OCCN3CCOCC3)c3ccccc23)cc1 [Doramapimod] + N=C(N)NC(=N)NCCc1ccccc1 [Phenformin] (partner 250 µM)
# How it was run: as §1
# Doramapimod + Olaparib = compound: Cc1ccc(-n2nc(C(C)(C)C)cc2NC(=O)Nc2ccc(OCCN3CCOCC3)c3ccccc23)cc1 [Doramapimod] + O=C(c1cc(Cc2n[nH]c(=O)c3ccccc23)ccc1F)N1CCN(C(=O)C2CC2)CC1 [Olaparib] (partner 8 µM)
# How it was run: as §1
# RAF265 + Crizotinib = compound: Cn1c(Nc2ccc(C(F)(F)F)cc2)nc2cc(Oc3ccnc(-c4ncc(C(F)(F)F)[nH]4)c3)ccc21 [RAF265] + C[C@@H](Oc1cc(-c2cnn(C3CCNCC3)c2)cnc1N)c1c(Cl)ccc(F)c1Cl [Crizotinib] (partner 1 µM)
# How it was run: as §1
Cell Line,relative viability (IPA-3 + Pictilisib; first compound 0.2 µM),relative viability (IPA-3 + Pictilisib; first compound 0.6325 µM),relative viability (IPA-3 + Pictilisib; first compound 2 µM),relative viability (IPA-3 + Pictilisib; first compound 6.325 µM),relative viability (IPA-3 + Pictilisib; first compound 20 µM),relative viability (Doramapimod + Phenformin; first compound 0.02 µM),relative viability (Doramapimod + Phenformin; first compound 0.06325 µM),relative viability (Doramapimod + Phenformin; first compound 0.2 µM),relative viability (Doramapimod + Phenformin; first compound 0.6325 µM),relative viability (Doramapimod + Phenformin; first compound 2 µM),relative viability (Doramapimod + Olaparib; first compound 0.02 µM),relative viability (Doramapimod + Olaparib; first compound 0.06325 µM),relative viability (Doramapimod + Olaparib; first compound 0.2 µM),relative viability (Doramapimod + Olaparib; first compound 0.6325 µM),relative viability (Doramapimod + Olaparib; first compound 2 µM),relative viability (RAF265 + Crizotinib; first compound 0.01 µM),relative viability (RAF265 + Crizotinib; first compound 0.03162 µM),relative viability (RAF265 + Crizotinib; first compound 0.1 µM),relative viability (RAF265 + Crizotinib; first compound 0.3162 µM),relative viability (RAF265 + Crizotinib; first compound 1 µM)
201T,0.748,0.684,0.671,0.714,0.809,0.453,0.471,0.448,0.497,0.394,0.869,1.01,0.848,0.96,0.839,1.08,0.996,1.05,1.06,1.08
A549,0.607,0.445,0.713,0.483,0.696,0.177,0.165,0.126,0.136,0.132,0.376,0.3,0.299,0.3,0.269,0.72,0.656,0.677,0.511,0.36
A-427,0.682,0.683,0.784,0.604,0.784,0.269,0.464,0.388,–,0.318,0.86,0.85,0.838,–,0.738,0.882,0.639,0.927,0.644,0.159
ABC-1,0.863,0.698,–,0.803,0.75,0.208,0.232,0.278,0.281,0.221,0.851,0.68,0.698,0.983,0.935,1.17,0.864,1.37,0.851,0.464
BEN,0.6,0.596,0.66,0.697,0.601,0.29,0.245,0.27,0.242,0.278,1.05,1.1,1.01,0.901,0.967,0.955,0.911,0.961,1.07,0.821
CAL-12T,0.442,0.494,0.397,0.441,0.348,0.552,0.593,0.621,0.625,0.479,0.724,0.711,0.68,0.758,0.609,0.66,0.456,0.638,0.441,0.298
COR-L23,1.01,0.75,0.764,0.615,0.72,0.436,0.467,0.398,0.422,0.391,0.368,0.351,0.368,0.315,0.379,0.799,0.75,0.638,0.465,0.424
COR-L 105,0.465,0.422,0.393,0.416,0.351,0.513,0.461,0.443,0.619,0.453,0.59,0.727,0.707,0.824,0.602,0.844,0.689,0.755,0.503,0.297
Calu-6,1.06,0.872,0.933,0.736,0.848,–,–,–,–,–,0.589,0.6,0.622,0.554,0.557,0.73,0.709,0.658,0.529,0.276
ChaGo-K-1,0.728,0.785,0.663,0.824,0.824,0.476,0.507,0.459,0.534,0.428,0.472,0.423,0.438,0.379,0.398,1.15,1.15,1.18,1.05,0.792
EBC-1,0.434,0.316,0.354,0.265,0.269,–,–,–,–,–,0.664,0.69,0.689,0.675,0.558,0.181,0.194,0.191,0.26,0.219
EKVX,0.62,0.421,0.499,0.484,0.575,0.256,0.24,0.253,0.179,0.204,0.955,0.775,0.888,0.844,0.742,0.909,0.625,0.998,0.805,0.773
EMC-BAC-2,0.552,0.53,0.531,0.529,0.636,0.53,0.606,0.586,0.678,0.503,0.494,0.441,0.469,0.473,0.43,0.747,0.685,0.617,0.501,0.234
EPLC-272H,0.309,0.338,0.273,0.343,0.401,0.294,0.243,0.356,0.291,0.274,0.732,0.766,0.726,1.03,0.717,0.765,0.868,1.32,0.472,0.434
H3255,0.454,0.465,0.44,0.573,0.558,0.356,0.345,0.391,0.366,0.411,0.591,0.567,0.573,0.567,0.539,0.928,0.83,1.12,–,0.671
HARA,0.452,0.346,0.333,0.4,0.402,0.464,0.495,0.464,–,0.425,0.741,0.709,0.839,0.835,0.76,1.1,0.965,1.03,0.906,0.652
HCC-15,0.853,0.783,0.724,0.776,0.841,0.481,0.467,0.478,–,0.365,0.675,0.692,0.675,0.654,0.623,0.83,0.817,0.836,0.566,0.499
HCC-44,0.605,1.49,0.53,1.04,0.63,0.267,0.247,0.22,–,0.241,0.995,0.976,0.993,0.979,0.977,0.791,0.679,0.854,0.83,0.772
HCC-78,0.23,0.218,0.229,0.229,0.282,0.704,0.819,0.743,0.813,0.543,0.779,0.715,0.796,0.856,0.729,0.337,0.288,0.381,0.301,0.359

Cell Line,relative viability (IPA-3 + Pictilisib; first compound 0.2 µM),relative viability (IPA-3 + Pictilisib; first compound 0.6325 µM),relative viability (IPA-3 + Pictilisib; first compound 2 µM),relative viability (IPA-3 + Pictilisib; first compound 6.325 µM),relative viability (IPA-3 + Pictilisib; first compound 20 µM),relative viability (Doramapimod + Phenformin; first compound 0.02 µM),relative viability (Doramapimod + Phenformin; first compound 0.06325 µM),relative viability (Doramapimod + Phenformin; first compound 0.2 µM),relative viability (Doramapimod + Phenformin; first compound 0.6325 µM),relative viability (Doramapimod + Phenformin; first compound 2 µM),relative viability (Doramapimod + Olaparib; first compound 0.02 µM),relative viability (Doramapimod + Olaparib; first compound 0.06325 µM),relative viability (Doramapimod + Olaparib; first compound 0.2 µM),relative viability (Doramapimod + Olaparib; first compound 0.6325 µM),relative viability (Doramapimod + Olaparib; first compound 2 µM),relative viability (RAF265 + Crizotinib; first compound 0.01 µM),relative viability (RAF265 + Crizotinib; first compound 0.03162 µM),relative viability (RAF265 + Crizotinib; first compound 0.1 µM),relative viability (RAF265 + Crizotinib; first compound 0.3162 µM),relative viability (RAF265 + Crizotinib; first compound 1 µM)
HCC-366,0.161,0.152,0.0986,0.184,0.136,0.623,0.605,0.671,0.635,0.547,0.331,0.333,0.318,0.368,0.303,0.487,0.473,0.739,0.626,0.404
HCC-827,1.05,0.976,0.951,1.19,1.05,0.418,0.416,0.376,0.432,0.286,0.766,0.596,0.6,0.679,0.396,0.931,1,1.01,–,0.871
HOP-62,1.04,0.651,0.589,0.668,0.63,0.685,0.706,0.753,0.682,0.646,0.315,0.369,0.424,0.495,0.467,0.972,–,0.714,0.772,0.629
IA-LM,0.397,0.246,0.349,0.315,0.442,–,–,–,–,–,0.797,0.81,0.724,0.708,0.875,0.711,0.646,0.803,0.768,0.642
LC-2-ad,0.461,0.627,0.502,0.443,0.43,0.571,0.619,0.641,0.517,0.487,0.692,0.801,0.759,0.732,0.766,0.451,0.442,0.492,0.474,0.305
LCLC-97TM1,0.195,0.165,0.198,0.216,0.175,0.456,0.424,0.488,0.38,0.269,0.454,0.477,0.539,0.426,0.254,0.355,0.274,0.293,0.181,0.121
LCLC-103H,0.572,0.596,0.533,0.578,0.705,0.322,0.345,0.298,0.322,0.32,0.741,0.786,0.745,0.758,0.764,1.06,1.05,1.07,1,0.713
LK-2,0.47,0.572,0.708,0.646,0.695,0.278,0.332,0.382,0.282,0.246,0.656,0.778,0.656,0.493,0.397,0.203,0.222,0.239,0.237,0.223
NCI-H522,–,–,–,–,–,0.6,0.573,0.621,0.677,0.603,0.582,0.669,0.696,0.604,0.608,–,–,–,–,–
NCI-H1299,0.905,0.858,0.834,0.654,0.687,–,–,–,–,–,0.97,0.963,0.834,0.864,0.803,0.966,0.95,0.93,0.703,0.645
NCI-H1395,0.607,0.61,0.441,0.651,0.668,0.483,0.474,0.44,0.485,0.365,0.463,0.462,0.466,0.498,0.421,–,–,–,–,–
NCI-H1563,0.68,0.62,0.622,0.694,0.59,0.653,0.682,0.653,0.806,0.739,–,–,–,–,–,0.88,0.916,0.849,0.801,0.824
NCI-H1623,–,–,–,–,–,0.635,0.636,0.57,0.354,0.544,–,–,–,–,–,–,–,–,–,–
NCI-H1648,–,–,–,–,–,–,–,–,–,–,0.99,0.664,0.8,0.981,0.552,–,–,–,–,–
NCI-H1703,0.261,0.21,0.25,0.253,0.246,–,–,–,–,–,0.533,0.513,0.384,0.38,0.31,0.567,0.512,0.581,0.449,0.195
NCI-H1793,0.318,0.352,0.314,0.367,0.418,0.365,0.346,0.346,0.381,0.256,0.741,0.816,0.768,1.08,0.821,–,–,–,–,–
NCI-H2342,–,–,–,–,–,0.617,0.594,0.593,0.704,0.497,0.496,0.475,0.472,0.473,0.431,–,–,–,–,–
SW 900,–,–,–,–,–,0.612,0.665,0.676,0.76,0.635,0.842,0.728,0.895,0.939,0.846,–,–,–,–,–
